One assay addresses cathepsin B (Rattus norvegicus, UniProt P00787). Description: In vitro assay for cathepsin B inhibition. The format is biochemical. As to conditions: r rat cathepsin B; pH 5.1; 10 min incubation at room temperature; substrate N-CBZ-Phe-Arg-AMC (5 mM, 20 μl). The protocol: The compounds of formula I were tested for inhibition of cathepsin B using the known method (A. J. Barret et al., Biochem. J. 1982, 201, 189-198). To a 170 μl of enzyme-buffer mixture (enzyme: r rat cathepsin B, diluted to give approximate 10 F units/min, buffer: 56 mM sodium acetate, 1.124 mM EDTA, 10 mM DTT, pH 5.1) a 10 μL of inhibitor (dissolved in DMSO) was added. After 10 min of incubation at room temperature, a 20 μl of 5 mM substrate (N-CBZ-Phe-Arg-AMC, dissolved in DMSO) was added to initiate reaction. Reading is followed up for 10 min at the fluoroscan reader (excitation at 380 nm emission at 460 nm).
(§1) A plot of percentage of inhibition vs inhibitor concentration is obtained, and IC50 is determined using a linear regression calculation (concentration of inhibitor which will give 50% inhibition).

Another assay addresses cathepsin L (Rattus norvegicus, UniProt P07154). Briefly: In vitro assay for cathepsin L inhibition. The format is biochemical. Conditions: r rat cathepsin L; pH 5.0; 10 min incubation at room temperature; substrate N-CBZ-Phe-Arg-AMC (1 mM, 20 μl). The protocol:
To a 170 μl of enzyme-buffer mixture (enzyme: r rat cathepsin L, diluted to give approximate 15 F units/min, buffer: 58.8 mM sodium citrate, 1.18 mM EDTA, 235 mM sodium chloride, 5 mM DTT, pH 5.0) a 10 μL of inhibitor (dissolved in DMSO) was added. After 10 min of incubation at room temperature, a 20 μl of 1 mM substrate (N-CBZ-Phe-Arg-AMC, dissolved in DMSO) was added to initiate reaction. Reading is followed up for 10 min at the fluoroscan reader (excitation at 380 nm emission at 460 nm).
as §1

Some results are limits rather than exact numbers.

Chain of cathepsin L (P07154 114-334): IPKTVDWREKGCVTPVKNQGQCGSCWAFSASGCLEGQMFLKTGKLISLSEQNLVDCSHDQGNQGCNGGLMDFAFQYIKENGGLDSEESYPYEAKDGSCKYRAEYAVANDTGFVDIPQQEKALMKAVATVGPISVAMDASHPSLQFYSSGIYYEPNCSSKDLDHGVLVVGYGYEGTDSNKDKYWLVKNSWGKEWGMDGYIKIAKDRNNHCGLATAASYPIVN
Chain of cathepsin B (P00787 80-333 limits assumed): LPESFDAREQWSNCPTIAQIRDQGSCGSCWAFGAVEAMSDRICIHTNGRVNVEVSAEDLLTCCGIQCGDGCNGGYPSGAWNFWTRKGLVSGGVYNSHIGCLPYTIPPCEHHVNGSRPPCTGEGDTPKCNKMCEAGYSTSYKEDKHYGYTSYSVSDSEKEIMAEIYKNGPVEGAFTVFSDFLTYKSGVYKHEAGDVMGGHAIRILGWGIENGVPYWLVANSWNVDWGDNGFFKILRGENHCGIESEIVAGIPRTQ

For `CC(C)(C)OC[C@H](NC(=O)OCc1ccccc1)C(=O)N[C@@H]1C(=O)N[C@@H]1Oc1ccccc1` [Example 25, (3S,4R)-3-(2S-2-benzyloxycarbonylamino-2-t-butyloxymethyl-acetamido)-4-phenoxy-azetidin-2-one], the results for the IC50 at cathepsin B and on cathepsin L were 11000 nM and 2190 nM, respectively.
For `O=C(N[C@@H](Cc1ccc2ccccc2c1)C(=O)N[C@@H]1C(=O)N[C@@H]1Oc1ccc2ccccc2c1)OCc1ccccc1` [Example 13B, (3S,4R)-3-{N-benzyloxycarbonyl-β-(2-naphthyl)-L-alanyl}-amino-4-(2-naphthoxy)-azetidin-2-one], in that order: 71.5 nM and 0.11 nM.
For `CC(C)(C)C[C@H](NC(=O)OCc1ccccc1)C(=O)N[C@@H]1C(=O)N[C@H]1Oc1ccccc1` [Example 27, (3S, 4S)-3-(2S-2-benzyloxycarbonylamino-2-t-butylmethyl-acetamido)-4-phenoxy-azetidin-2-one], in that order: 23000 nM and 2300 nM.
In the same order, the values of `CC(=O)O[C@@H]1NC(=O)[C@H]1NC(=O)[C@H](Cc1ccc2ccccc2c1)NS(=O)(=O)/C=C/c1ccccc1` [Example 20, (3S,4S)-3-{N-(trans-2-phenyl-eth-1-enesulfonyl)-β-(2-naphthyl)-L-alanyl}-amino-4-acetoxy-azetidin-2-one] are 395 nM and 79 nM.
In the case of `COc1ccc(C[C@H](NC(=O)CCc2ccccc2)C(=O)N[C@@H]2C(=O)N[C@H]2Oc2ccccc2)cc1OC` [Example 30, (3S, 4s)-3-[2S-2-(3-phenylpropionoyl)amino-2-(3,4-dimethoxyphenyl)methyl-acetamido]-4-phenoxy-azetidin-2-one], the IC50 stood at 48000 nM at cathepsin B and 1600 nM against cathepsin L.
For `CC(=O)O[C@@H]1NC(=O)[C@H]1NC(=O)C(Cc1cccs1)NC(=O)OCc1ccccc1` (mixture of isomers) [Example 7, (3S,4S)-3-(N-benzyloxycarbonyl-β-(2-thienyl)-DL-alanyl)-amino-4-acetoxy-azetidin-2-one], in that order: 28600 nM and 2320 nM.
In the same order, the values of `O=C(CCc1ccccc1)NC(Cc1ccc2ccccc2c1)C(=O)NC1C(=O)NC1Sc1ccccc1` [Example 15, (3S,4SR)-3-{N-(3-phenylpropionoyl)-β-(2-naphthyl)-L-alanyl}-amino-4-phenylthio-azetidin-2-one] are 1910 nM and 6.1 nM.
For the compound `CC(OC(C)(C)C)[C@H](NC(=O)OCc1ccccc1)C(=O)N[C@@H]1C(=O)N[C@@H]1Oc1ccccc1` (stereo partly drawn) [Example 26, (3S, 4R)-3-[2S-2-benzyloxycarbonylamino-2-(1-t-butyloxyethyl)-acetamido]-4-phenoxy-azetidin-2-one], the IC50 at cathepsin B was over 50000 nM; at cathepsin L, 10700 nM.
For `N[C@@H](Cc1ccc(OC2NC(=O)[C@H]2NC(=O)[C@H](Cc2ccc3ccccc3c2)NC(=O)NCc2ccccc2)cc1)C(=O)O` (stereo partly drawn) [Example 22, (3S,4SR)-3-{N-(benzylaminocarbonyl)-β-(2-naphthyl)-L-alanyl}-amino-4-{4-(2S-2-amino-2-carboxy-ethyl)-phenoxy}-azetidin-2-one], in that order: 8400 nM and 13 nM.
For `CC(=O)O[C@@H]1NC(=O)[C@H]1NC(=O)[C@H](CCc1ccccc1)NC(=O)OCc1ccccc1` [Example 4, (3S,4S)-3-(N-benzyloxycarbonyl-L-homophenylalanyl)-amino-4-acetoxy-azetidin-2-one], in that order: over 50000 nM and 11400 nM.
Turning to `CC(=O)O[C@@H]1NC(=O)[C@H]1NC(=O)[C@H](Cc1ccc2ccccc2c1)NC(=O)NCc1ccccc1` [Example 21, (3S,4S)-3-{N-(benzylaminocarbonyl)-β-(2-naphthyl)-L-alanyl}-amino-4-acetoxy-azetidin-2-one], the values for the IC50 at cathepsin B and at cathepsin L were 2200 nM and 10 nM, respectively.
With `O=C(N[C@@H](Cc1ccc2ccccc2c1)C(=O)N[C@@H]1C(=O)N[C@H]1Oc1ccc2ccccc2c1)OCc1ccccc1` [Example 13A, (3S,4S)-3-{N-benzyloxycarbonyl-β-(2-naphthyl)-L-alanyl}amino-4-(2-naphthoxy)-azetidin-2-one], the IC50 at cathepsin B stood at 1800 nM; on cathepsin L, 2.9 nM.
For `O=C(CCc1ccccc1)N[C@@H](Cc1ccc2c(c1)OCCO2)C(=O)N[C@@H]1C(=O)N[C@H]1Oc1ccccc1` [Example 31], in that order: 9700 nM and 80 nM.
For `CC(C)(C)C[C@H](NC(=O)CCc1ccccc1)C(=O)N[C@@H]1C(=O)N[C@H]1Oc1ccccc1` [Example 28, (3S, 4S)-3-[2S-2-(3-phenylpropionoyl)amino-2-t-butylmethyl-acetamido]-4-phenoxy-azetidin-2-one], in that order: 45000 nM and 11400 nM.
In the same order, the values of `CC(=O)O[C@@H]1NC(=O)[C@H]1NC(=O)[C@H](Cc1ccc2ccccc2c1)NC(=O)OCc1ccccc1` [Example 8, (3S,4S)-3-(N-benzyloxycarbonyl-β-(2-naphthyl)-L-alanyl)-amino-4-acetoxy-azetidin-2-one] are 16400 nM and 13.5 nM.
As for `CC(=O)O[C@@H]1NC(=O)[C@H]1NC(=O)[C@H](Cc1ccccn1)NC(=O)OCc1ccccc1` [Example 6, (3S,4S)-3-(N-benzyloxycarbonyl-β-(2-pyridyl)-L-alanyl)-amino-4-acetoxy-azetidin-2-one], the IC50 at cathepsin B was over 50000 nM; at cathepsin L, 12100 nM.
Consider `CC(=O)O[C@@H]1NC(=O)[C@H]1NC(=O)[C@H](NC(=O)OCc1ccccc1)c1ccccc1` [Example 2, (3S,4S)-3-(N-benzyloxycarbonyl-D-phenylglycyl)-amino-4-acetoxy-azetidin-2-one], for which the IC50 against cathepsin B and against cathepsin L was over 50000 nM each time.
Regarding `O=C(N[C@@H](Cc1ccc2ccccc2c1)C(=O)N[C@@H]1C(=O)N[C@@H]1Oc1cccc(N2CCOCC2)c1)OCc1ccccc1` [Example 14B, (3S,4R)-3-{N-benzyloxycarbonyl-β-(2-naphthyl)-L-alanyl}-amino-4-{3-(morpholin-4-yl)-phenoxy}-azetidin-2-one], the IC50 against cathepsin B is 340 nM; against cathepsin L, 0.5 nM.
In the same order, the values of `CC(=O)O[C@@H]1NC(=O)[C@H]1NC(=O)[C@H](CCCNC(N)=O)NC(=O)CCc1ccccc1` [Example 23, (3S,4S)-3-{N-(3-phenylpropionyl)-L-citrullinyl}-amino-4-acetoxy-azetidin-2-one] are 11000 nM and 11500 nM.
In the same order, the values of `O=C(CCc1ccccc1)N[C@@H](Cc1ccc2ccccc2c1)C(=O)N[C@@H]1C(=O)NC1OC1CCCCC1` (stereo partly drawn) [Example 19, (3S,4SR)-3{N-(3-phenylpropionoyl)-β-(2-naphthyl)-L-alanyl}-amino-4-cyclohexyloxy-azetidin-2-one] are 1950 nM and 390 nM.
For `CC(=O)O[C@@H]1NC(=O)[C@H]1NC(=O)[C@H](Cc1cccc(F)c1)NC(=O)OCc1ccccc1` [Example 9, (3S,4S)-3-{N-benzyloxycarbonyl-β-(3-fluorophenyl)-L-alanyl}-amino-4-acetoxy-azetidin-2-one], in that order: 18800 nM and 341 nM.
In the case of `CC(C)(C)[C@H](NC(=O)CCc1ccccc1)C(=O)N[C@@H]1C(=O)N[C@H]1Oc1ccccc1` [Example 29, (3S, 4S)-3-[2S-2-(3-phenylpropionoyl)amino-2-t-butyl-acetamido]-4-phenoxy-azetidin-2-one], the IC50 against cathepsin B and against cathepsin L was over 50000 nM in each case.
For the compound `CC(=O)O[C@@H]1NC(=O)[C@H]1NC(=O)[C@H](Cc1cccnc1)NC(=O)OCc1ccccc1` [Example 5, (3S,4S)-3-{N-benzyloxycarbonyl-β-(3-pyridyl)-L-alanyl}-amino-4-acetoxy-azetidin-2-one], the values for the IC50 against cathepsin B and against cathepsin L were over 50000 nM and 8260 nM, respectively.
Consider `CC(=O)O[C@@H]1NC(=O)[C@H]1NC(=O)[C@H](CCCN=C(N)N[N+](=O)[O-])NC(=O)CCc1ccccc1` [Example 24, (3S,4S)-3-{N^α -(3-phenylpropionyl)-N-nitro-L-arginyl}-amino-4-acetoxy-azetidin-2-one], for which the values for the IC50 at cathepsin B and against cathepsin L were 31400 nM and 16.8 nM, respectively.
For `O=C(CCc1ccccc1)N[C@@H](Cc1ccc2ccccc2c1)C(=O)N[C@@H]1C(=O)NC1OCc1ccccc1` (stereo partly drawn) [Example 18, (3S,4SR)-3{N-(3-phenylpropionoyl)-β-(2-naphthyl)-L-alanyl}-amino-4-benzyloxy-azetidin-2-one], in that order: 1920 nM and 76.7 nM.
In the same order, the values of `Cc1cccc(O[C@@H]2NC(=O)[C@H]2NC(=O)[C@H](Cc2ccc3ccccc3c2)NC(=O)OCc2ccccc2)c1` [Example 12A, (3S,4S)-3{N-benzyloxycarbonyl-β-(2-naphthyl)-L-alanyl}-amino-4-(3-methylphenoxy)-azetidin-2-one] are 380 nM and 3 nM.

For the origin of these results see US5959123A, “3,4-Disubstituted azetidin-2-one derivatives useful as cysteine proteinase regulators” (Synphar Laboratories, Inc., priority 1997, dated 1999).
